The values that follow are results of earlier work, collected in patent US5607673A, “Purified extract of uvaria brevistipitata and a process for obtaining the purified extract therefor” (C.S.S.A.H.A., Inc., priority 1995, dated 1997).

Data set [1] deals with P-388 mouse lymphocytic leukemia cells. The conditions noted are these: Lumonadio et al. 1991.
Another data set deals with Colon-38 adenocarcinoma. The conditions noted are these: Lumonadio et al. 1991.
Data set [2] deals with multi-drug resistant K 1 strain of plasmodium falciparum. To be noted: in vitro; Nkunya et al. 1991.
For data set [3], the system named is NADH-Ubiquinone Reductase (Complex I). To be noted: Degli et al. 1994; for Complex I inhibitory constant and protein dependence of titer vs classical inhibitors: bovine submitochondrial particles.
The subject of another data set is tumor. The conditions noted are these: Cole et al. 1976.
The test system of data set [4] is P-388 lymphocytic leukemia. To be noted: in vitro; Jolad et al. 1982.
The conditions of data set [5]: U.S. Pat. No. 5,229,419.

Turning to 15-desacetylundulatone, the “activity against P-388 cells” value in data set [1] is given as “active”. Also, the “activity against Colon-38 adenocarcinoma” value with Colon-38 adenocarcinoma is “active”.
Take `CC(C)=CC(O)C(O)C(C)=CCCC(C)=CCc1c[nH]c2ccccc12` (stereo not shown) [8',9'-dihydroxy-3-farnesylindole]: the anti-malarial activity entry in data set [2] is recorded as “most active”.
In the case of `COc1c(Cc2ccccc2O)c(O)c(Cc2ccccc2O)c(O)c1C(=O)CCc1ccccc1` [Diuveretin], in data set [2], the anti-malarial activity entry was “most active”.
For the compound `CCCCCCCCCC[C@H](O)[C@H]1CC[C@@H]([C@@H]2CC[C@H]([C@H](O)CCCCCCCCCC[C@@H](O)CC3=C[C@H](C)OC3=O)O2)O1` [Rolliniastatin-1], in data set [3], the “Complex I inhibitory constant and protein dependence of titer vs classical inhibitors” value is “more powerful”.
Take `CCCCCCCCCC[C@H](O)[C@H]1CC[C@H]([C@H]2CC[C@H]([C@H](O)CCCCCCCCCCC(O)CC3=C[C@H](C)OC3=O)O2)O1` (stereo partly shown) [Rolliniastatin-2]: in data set [3], the “Complex I inhibitory constant and protein dependence of titer vs classical inhibitors” value is “more powerful”.
Consider `CCCCCC[C@H](O)CCC[C@H](O)[C@H]1CC[C@H]([C@H]2CC[C@H]([C@H](O)CCCCCCCCCCCCC3=C[C@H](C)OC3=O)O2)O1` [Squamocin], for which the “Complex I inhibitory constant vs the classical inhibitor” value in data set [3] is on record as “lower than that of the classical inhibitor”.
For `COc1cc(O)c(Cc2ccccc2O)c(O)c1C(=O)CCc1ccccc1` [Uvaratin], in the data set with tumor, the anti-tumor activity result is reported as “shown to have anti-tumor activity”.
Turning to `COc1cc(O)c(Cc2ccccc2O)c(O)c1C(=O)CCc1ccccc1` [Uvaretin], the anti-malarial activity entry in data set [2] is on record as “most active”.
On to `CCCCCCCCCC[C@H](OC(C)=O)[C@H]1CC[C@H]([C@H]2CC[C@H]([C@H](O)CCCCCCCCCCCCC3=C[C@H](C)OC3=O)O2)O1` [Uvaricin], for which the “activity against P-388 lymphocytic leukemia” value in data set [4] is “demonstrated an in vitro activity”.
For `CCCCCCCCCC[C@H](O)[C@H]1CC[C@H]([C@H]2CC[C@H]([C@H](O)CCCCCCCCCC[C@@H](O)CC3=C[C@H](C)OC3=O)O2)O1` [bullatacin], the “antitumor and pesticidal activity” value in data set [5] is “exhibit antitumor and pesticidal activity”.
On to `CCCCCCCCCC[C@H](O)[C@H]1CC[C@H]([C@H]2CC[C@H]([C@H](O)CCCCCCCCCC[C@@H]3CC(CC(C)=O)C(=O)O3)O2)O1` (stereo partly shown) [bullatacinone], for which the “antitumor and pesticidal activity” value in data set [5] was “exhibit antitumor and pesticidal activity”.
Otivarin: in data set [3], the “Complex I inhibitory constant vs the classical inhibitor” value is “lower than that of the classical inhibitor”.
